Assay [1] addresses T1, 6-phosphofructo-1-kinase (PFK) (Rattus norvegicus, UniProt P30835).
T1 construct: purified rat liver 6-phosphofructo-1-kinase; from tissue; host or cells: rat liver
T1 sequence (P30835 2-780 limits assumed): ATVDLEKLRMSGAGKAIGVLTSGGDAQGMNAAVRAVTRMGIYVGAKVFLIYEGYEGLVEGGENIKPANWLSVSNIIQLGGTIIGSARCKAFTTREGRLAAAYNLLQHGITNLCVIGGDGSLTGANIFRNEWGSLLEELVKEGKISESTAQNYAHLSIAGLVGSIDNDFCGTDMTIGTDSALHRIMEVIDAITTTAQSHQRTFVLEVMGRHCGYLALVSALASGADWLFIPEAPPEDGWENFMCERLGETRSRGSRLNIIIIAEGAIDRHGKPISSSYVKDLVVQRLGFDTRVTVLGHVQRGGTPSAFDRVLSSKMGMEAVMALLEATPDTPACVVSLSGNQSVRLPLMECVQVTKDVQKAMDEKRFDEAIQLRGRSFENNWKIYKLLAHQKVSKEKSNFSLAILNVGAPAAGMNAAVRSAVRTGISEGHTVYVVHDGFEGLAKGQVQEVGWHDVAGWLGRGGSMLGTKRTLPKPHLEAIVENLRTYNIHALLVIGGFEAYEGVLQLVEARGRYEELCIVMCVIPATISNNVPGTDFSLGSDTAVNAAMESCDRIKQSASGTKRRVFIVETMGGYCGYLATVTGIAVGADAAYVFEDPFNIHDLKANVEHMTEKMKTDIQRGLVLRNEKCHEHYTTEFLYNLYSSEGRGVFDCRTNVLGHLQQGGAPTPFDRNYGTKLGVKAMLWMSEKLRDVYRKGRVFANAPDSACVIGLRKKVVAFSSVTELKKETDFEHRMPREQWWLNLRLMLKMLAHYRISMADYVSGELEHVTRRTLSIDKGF
Put plainly: PFK stimulation, aldolase-coupled spectrophotometric assay. It is filed as biochemical. To be noted: stimulation of purified rat liver 6-phosphofructo-1-kinase; 0.2 mM fructose-6-phosphate, pH 7.3, 30° C.; read-out: PFK ED50. The protocol: (§1) The novel compounds of this invention were tested for their ability to stimulate the enzyme 6-phosphofructo-1-kinase ("PFK") and for their ability to inhibit the enzyme fructose-1,6-bisphosphatase ("FBP") using the procedures described below.
Effects on the activity of PFK were determined using an aldolase-coupled, spectrophotometric assay. The assay mixture contained: […] N-tris-(hydroxymethyl)-methyl-2-aminoethanesulfonic acid, hydrochloride ("TES-HCl", pH 7.3); 1 mM ethylenediaminetetraacetic acid ("EDTA"); 6 mM magnesium chloride; 2.5 mM dithiothreitol; 0.165 mM nicotinamide adenine dinucleotide ("NADH"); 1 mM adenosine triphosphate ("ATP"); 0.04 U aldolase; 0.4 U triose phosphate isomerase; alpha-glycerolphosphate dehydrogenase (1.5 U/ml); 0.1 U of purified rat liver 6-phosphofructo-1-kinase; and various concentrations of the test compound, all in a final volume of 1 ml. The mixture was preincubated for 3 minutes at 30° C. and then the reaction was initiated with 0.2 mM fructose-6-phosphate. The rate of decrease in absorbance at 340 nm was measured at 30° C. with a recording spectrophotometer.

In assay [2] the target is T2, fructose-1,6-bisphosphatase (FBP) (Rattus norvegicus, UniProt P19112).
T2 construct: purified rat liver FBP; from tissue; host or cells: rat liver
T2 sequence (P19112 2-363 limits assumed): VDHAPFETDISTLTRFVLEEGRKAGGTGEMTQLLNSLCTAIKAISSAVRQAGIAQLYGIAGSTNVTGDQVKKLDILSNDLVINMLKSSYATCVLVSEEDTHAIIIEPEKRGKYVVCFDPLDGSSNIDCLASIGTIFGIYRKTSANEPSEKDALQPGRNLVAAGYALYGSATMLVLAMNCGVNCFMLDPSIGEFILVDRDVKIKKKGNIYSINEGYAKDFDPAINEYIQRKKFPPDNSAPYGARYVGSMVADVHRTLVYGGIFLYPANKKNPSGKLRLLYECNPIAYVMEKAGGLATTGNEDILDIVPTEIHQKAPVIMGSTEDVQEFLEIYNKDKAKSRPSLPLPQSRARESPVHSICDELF
Put plainly: FBP inhibition, spectrophotometric assay. Type of assay: biochemical. To be noted: inhibition of purified rat liver FBP; 0.02 mM fructose-1,6-bisphosphate, pH 7.4, 30° C. The procedure: as §1
Effects on the activity of FBP were determined using a spectrophotometric assay. The assay mixture contained 100 mM tris(hydroxymethyl)aminomethane,hydrochloride ("TRIS-HCl", pH 7.4); 2.5 mM betamercaptoethanol; 2 mM magnesium chloride; 0.05 mM EDTA; 0.2 mM nicotinamide adenine dinucleotide phosphate ("NADP"); 10 U phosphoglucose isomerase; 5 U glucose-6-phosphatedehydrogenase; 0.02 U of purified rat liver FBP; and various concentrations of the test compound, all in a final volume of 1 ml. The mixture was preincubated for 3 minutes at 30° C. and then the reaction was initiated with 0.02 mM fructose-1,6-bisphosphate. The rate of increase in absorbance at 340 nm was measured at 30° C. with a recording spectrophotometer.

As usually defined, the IC50 is the concentration that gives 50% inhibition. Consider `O=P(O)(O)C[C@@H]1O[C@H](COP(=O)(O)O)[C@@H](O)[C@@H]1O` [2,5-Anhydro-1-deoxy-1-phosphono-D-glucitol, 6-(dihydrogen phosphate)], for which the EC50 in assay [1] came to 20 µM. In assay [2], this molecule showed an IC50 of 602 µM.

Take `O=P(O)(O)C[C@H]1O[C@H](COP(=O)(O)O)[C@@H](O)[C@@H]1O` [2,5-Anhydro-1-deoxy-1-phosphono-D-mannitol, 6-(dihydrogen phosphate)]: in assay [1], the EC50 came to 4 µM. The molecule also gave an IC50 in assay [2] of 58 µM.

Consider `O=P(O)(O)C[C@]1(CO)O[C@H](COP(=O)(O)O)[C@@H](O)[C@@H]1O` [2,5-Anhydro-1-deoxy-2-C-(hydroxymethyl)-1-phosphono-D-glucitol, 6-(dihydrogen phosphate)], for which the EC50 in assay [1] was 12 µM. The same molecule registered an IC50 in assay [2] of 240 µM.

Consider `O=P(O)(O)C[C@@]1(CO)O[C@H](COP(=O)(O)O)[C@@H](O)[C@@H]1O` [2,5-Anhydro-1-deoxy-2-C-(hydroxymethyl)-1-phosphono-D-mannitol, 6-(dihydrogen phosphate)], for which the EC50 in assay [1] worked out at 6 µM. Besides, the IC50 in assay [2] came out at 393 µM.

Regarding `O=P(O)(O)CC[C@H]1O[C@H](COP(=O)(O)O)[C@@H](O)[C@@H]1O` [3,6-Anhydro-1,2-dideoxy-1-phosphono-D-manno-heptitol, 7-(dihydrogen phosphate)], the EC50 in assay [1] is 6 µM. In assay [2], this molecule came in with a half-inhibitory concentration (IC50) of 80 µM.

In the case of `O=P(O)(O)CCC[C@@H]1O[C@H](COP(=O)(O)O)[C@@H](O)[C@@H]1O` [4,7-Anhydro-1,2,3-trideoxy-1-(dihydroxyphosphinyl)-D-gluco-octitol, 8-(dihydrogen phosphate)], the EC50 in assay [1] amounted to 12 µM.

In the case of `O=P(O)(O)CCC[C@H]1O[C@H](COP(=O)(O)O)[C@@H](O)[C@@H]1O` [4,7-anhydro-1,2,3-trideoxy-1-(dihydroxyphosphinyl)-D-manno-octitol, 8-(dihydrogen phosphate)], the EC50 in assay [1] is 27 µM. Further, in assay [2], the IC50 was 200 µM.

Source of the values: US4945158A, “Antidiabetic phosphonates” (American Cyanamid Company, priority 1988, dated 1990).
